Assays:
[1] = test system: serum glucose; test: Serum glucose lowering in fasted rats, single orogastric dose, monitored over 24 hours; assay type: in vivo; conditions: sodium DCA 100 mg/kg or derivative equivalent to 100 mg/kg DCA
Source text: (§1) Results are expressed as (1) maximum percent decrease in glucose or lactace, relative to control, (2) the time at which the maximum changes occurred, and (3) the duration of action of the drug.

[2] = test system: blood lactate; test: Blood lactate lowering in fasted rats, single orogastric dose, monitored over 24 hours; assay type: in vivo; conditions: for duration of action (blood lactate decrease): single orogastric dose, sodium DCA 100 mg/kg or derivative equivalent to 100 mg/kg DCA
Source text: as §1

[3] = test system: peripheral tissues; conditions: cited from earlier work
[4] = test system: lactate oxidation; conditions: animal tissues; cited from earlier work
[5] = test system: blood glucose; conditions: patients with diabetes mellitus; cited from earlier work
[6] = chronic administration, doses exceeding those used clinically; cited from earlier work
[7] = test system: hepatic glucose production; conditions: cited from earlier work
[8] = cited from earlier work
[9] = test system: lactic acid levels; conditions: patients with lactic acidosis; cited from earlier work
[10] = test system: blood cholesterol; conditions: patients with various forms of hyperlipidemia; cited from earlier work
[11] = one human patient, about four months; resolved when treatment stopped; cited from earlier work
[12] = test system: circulating triglyceride and cholesterol; conditions: obese and diabetic animals; cited from earlier work
[13] = Comparative pharmacokinetic investigations (bioavailability, oxalate formation); assay type: in vivo; conditions: comparative pharmacokinetic investigations with DCA and Derivative 4

In the case of `O=C(OC1C(OC(=O)C(Cl)Cl)C(OC(=O)C(Cl)Cl)C(OC(=O)C(Cl)Cl)C(OC(=O)C(Cl)Cl)C1OC(=O)C(Cl)Cl)C(Cl)Cl` (stereo not shown) [Derivative 3, inositol hexadichloroacetate], the “duration of action (serum glucose decrease)” value [1] is reported as 6 h, the “potency relative to DCA (blood lactate)” value ([2]; FIG. 2, dose equivalent to 100 mg/kg DCA) is reported as “less potent than DCA” and the “duration of action (blood lactate decrease)” value [2] is reported as 8 h.

In the case of `O=C(OC1OC(C(=O)O)C(OC(=O)C(Cl)Cl)C(OC(=O)C(Cl)Cl)C1OC(=O)C(Cl)Cl)C(Cl)Cl` (stereo not shown) [Derivative 1, potassium tetra(dichloroacetyl)glucuronate], the “duration of action (serum glucose decrease)” value [1] is reported as > 24 h and the “duration of action (blood lactate decrease)” value [2] is reported as > 24 h.

For `O=C(O)C(Cl)Cl` [DCA, dichloroacetic acid], the “glucose uptake and utilization” value [3] is given as “stimulates glucose uptake and utilization by peripheral tissues”, the “duration of action (serum glucose decrease)” value [1] is given as 17 h and the “duration of action (blood lactate decrease)” value [2] is given as 18 h. For the same compound, the lactate oxidation [4] was “stimulates lactate oxidation in animal tissues”, the blood glucose levels [5] was “decrease blood glucose levels in patients with diabetes mellitus” and the chronic toxicity [6] was “reversible peripheral neuropathy, changes in testicular morphology and lenticular opacities”. The hepatic glucose production [7] was “inhibits hepatic glucose production”, the in vivo oxidation [8] was “oxidize in vivo to glyoxylate and subsequently to oxalate” and the “lactic acid levels and overall morbidity” value [9] was “significantly decreases lactic acid levels and overall morbidity in patients with lactic acidosis”. For the same compound, the blood cholesterol levels [10] was “markedly decreases blood cholesterol levels”, the polyneuropathy [11] was “mild polyneuropathy that resolved when treatment stopped” and the “circulating triglyceride and cholesterol concentrations” value [12] was “reduces circulating triglyceride and cholesterol concentrations”.

In the case of `O=C(OC1C(O)C(OP(=O)(O)O)C(OC(=O)C(Cl)Cl)C(OC(=O)C(Cl)Cl)C1OC(=O)C(Cl)Cl)C(Cl)Cl` (stereo not shown) [Derivative 2, inositol monophosphatetetradichloroacetate], the “duration of action (serum glucose decrease)” value [1] is reported as 24 h and the “duration of action (blood lactate decrease)” value [2] is reported as > 24 h.

In the case of `C[n+]1cccc(C(=O)OC2C(OC(=O)c3ccc[n+](C)c3)C(OC(=O)c3ccc[n+](C)c3)C(OC(=O)c3ccc[n+](C)c3)C(OC(=O)c3ccc[n+](C)c3)C2OC(=O)c2ccc[n+](C)c2)c1` (stereo not shown) [Derivative 4, inositol hexa(N-methylnicotinate-dichloroacetate)], the “duration of action (serum glucose decrease)” value [1] is reported as > 24 h, the “duration of action (blood lactate decrease)” value [2] is reported as > 24 h and the formation of oxalate [13] is reported as “minimal and unlikely to be toxic”.

— patent US4801597A, “Certain inositol-nicotinate ester derivatives and polyionic complexes therefore useful for treating diabetes meuitus, hyperlipidemia and lactic acidosis” (University of Florida, priority 1985, dated 1989)
